Data published in patent US8487079B2, “Use of mitochondria-targeted electron scavengers as anti-inflammatory agents” (University of Pittsburgh—Of the Commonwealth System of …, priority 2007, dated 2013).

Legend:
[1] = system: iNOS mRNA in RAW 264.7 cells; test: iNOS mRNA expression in LPS-stimulated RAW 264.7 cells (real-time RT-PCR); format: cell-based, mouse; conditions: LPS 100 ng/ml, 24 hours; for LPS-induced iNOS mRNA up-regulation: RT-PCR
Protocol: RAW 264.7 cells and liver tissue specimens were lysed with TRI-Reagent® (Molecular Research Center, Cincinnati, Ohio). Bromochloropropane (0.5 mL) was added in order to extract total RNA. After vigorous agitation and centrifugation (4° C., 12,000 g, 12 min), the aqueous phase containing RNA was collected. The RNA was precipitated with isopropanol (0.5 mL). The pellet was washed with 75% ethanol (1 mL) and centrifuged (4° C., 12,000 g, 5 min) twice, and then dissolved in RNA-free water. Total RNA was quantified using UV spectrophotometry (GeneQuant™ pro, GE Healthcare). Extracted RNAs (1 μg/reaction) were converted to single-strand cDNAs in a 20 μL volume reaction, using the Reverse Transcriptase System Kit (Promega, Madison, Wis.) as directed by the manufacturer. In a Gene Amp® PCR System 9700 (Applied Biosystems, Foster City, Calif.), the mixture was heated to 70° C. for 10 min, maintained at 42° C. for 30 min, and then heated to 95° C. for 5 min to terminate the reaction. TaqMan® Gene Expression Assays (Applied Biosystems) for 18S (endogenous control) and mouse iNOS were used. Reaction mixtures for PCR were assembled as follows: 10 μL TaqMan® Universal PCR Master Mix (Applied Biosystems), 1 μL of each assay, 5 μL cDNA template, and 3 μL of water. PCR reactions were performed in a thermocycler 7300 Real Time PCR System (Applied Biosystems) under recommended conditions (50° C. for 2 min; 95° C. for 10 min; 95° C. for 15 s; 60° C. for 1 min). The two last steps were repeated for 40 cycles. […] The ΔC^T relative quantification method was used to calculate mRNA levels for iNOS in the samples, as previously described (Scharte M, Han X, Bertges D J et al. Cytokines induce HIF-1 DNA binding and the expression of HIF-1-dependent genes in cultured rat enterocytes. Am J Physiol Gastrointest Liver Physiol 2003, 284:G373-G384). […]
RAW 264.7 cells were incubated in presence or absence of graded concentrations of XJB-5-131 or XJB-5-208. […] After 24 hours, steady-state levels of iNOS mRNA were measured using real-time quantitative RT-PCR.

[2] = system: C57B1/6J mice challenged with LPS; test: Plasma nitrite/nitrate in LPS-challenged mice; format: in vivo; design: unit not given here; conditions: 2 μmol/kg 60 min before i.p. LPS 15 mg/kg, blood 24 h after LPS, LPS alone 321.8±70.1, control 41.8±7.0, mean±SEM, p<0.05
Protocol: (§1) Nitrite (NO2^−) concentrations were measured in cell supernatants and blood serum as an indicator of nitric oxide (.NO) production, where .NO readily oxidize into nitrites (NO2^−) and nitrates (NO3^−). The total concentration of .NO was determined by reducing NO3^− to NO2^− using cadmium and detecting NO2^− using the Greiss reagent and potassium nitrite as a standard.
(§2) Samples (200 μL) were incubated with 30% zinc sulfate to precipitate proteins and then centrifuged (4° C., 12,000 g, 5 min). Supernatants were added to 0.6 g activated cadmium (previously washed twice with each deionized H2O, 0.1 M HCl, and 0.1 NH4OH) and allowed to shake overnight at room temperature. The supernatants were removed. Greiss reagent (100 μL) was mixed with an equal volume of supernatant. Reaction between the Greiss reagent and NO2^−) yielded an azo dye that can be detected spectrophotometrically. Absorbance was measured at 550 nm using a Packard Fusion™ microplate reader (PerkinElmer, Wellesley, Mass.).
All experiments using mice followed the guidelines for the use of experimental animals of the U.S. National Institutes of Health and were approved by the Institutional Animal Care and Use Committee at the University of Pittsburgh. […]

[3] = system: iNOS mRNA in hepatic tissue of LPS-challenged mice; test: Hepatic iNOS mRNA expression in LPS-challenged mice; format: in vivo; conditions: 2 μmol/kg 1 h before i.p. LPS 15 mg/kg, 24 h after LPS, RT-PCR
Protocol: RAW 264.7 cells and liver tissue specimens were lysed with TRI-Reagent® (Molecular Research Center, Cincinnati, Ohio). Bromochloropropane (0.5 mL) was added in order to extract total RNA. After vigorous agitation and centrifugation (4° C., 12,000 g, 12 min), the aqueous phase containing RNA was collected. The RNA was precipitated with isopropanol (0.5 mL). The pellet was washed with 75% ethanol (1 mL) and centrifuged (4° C., 12,000 g, 5 min) twice, and then dissolved in RNA-free water. Total RNA was quantified using UV spectrophotometry (GeneQuant™ pro, GE Healthcare). Extracted RNAs (1 μg/reaction) were converted to single-strand cDNAs in a 20 μL volume reaction, using the Reverse Transcriptase System Kit (Promega, Madison, Wis.) as directed by the manufacturer. […] The ΔC^T relative quantification method was used to calculate mRNA levels for iNOS in the samples, as previously described (Scharte M, Han X, Bertges D J et al. Cytokines induce HIF-1 DNA binding and the expression of HIF-1-dependent genes in cultured rat enterocytes. Am J Physiol Gastrointest Liver Physiol 2003, 284:G373-G384). […]
Mice were randomly pretreated with a solution containing XJB-5-131 (2 μmol/kg) or a similar volume (2 ml/kg) of vehicle, a 67:33 (v/v) mixture of DMSO and normal saline. […] Subsequently, iNOS mRNA expression was measured, using quantitative real-time RT-PCR. […]

[4] = system: LPS-induced NO production in RAW 264.7 cells; test: Nitric oxide secretion (nitrite assay) by LPS-stimulated RAW 264.7 cells; format: cell-based, murine; conditions: for NO secretion by LPS-stimulated RAW 264.7 cells: graded concentrations, added 1 h before LPS, 24 hours
Protocol: RAW 264.7 cells were obtained from the American Type Culture Collection (Manassas, Va.). Cells were maintained in DMEM supplemented with 10% FBS, 100 units/ml penicillin, and 100 μg/ml streptomycin at 37° C. in a humidified incubator (5% CO2, 95% air). For stimulation experiments, cells were transferred to 24-well polystyrene culture plates (Corning Life Sciences, Corning, N.Y.) at 0.3 or 1×10^6 cells/well (depending on the experiment) in 1 ml of medium per well. After overnight incubation, the medium was removed and replaced with DMEM containing 0.25% FBS. Cells were stimulated by adding 0.1 μg/ml to 1 μg/ml Escherichia coli 0111:B4 lipopolysaccharide (LPS) in the presence or absence of graded concentrations of XJB-5-131 or XJB-5-208.
as §1, §2
RAW 264.7 murine macrophage-like cells were incubated in the presence or absence of graded concentrations of XJB-5-131 or XJB-5-208. Concentrations of either XJB-5-131 or XJB-5-208 were dissolved in dimethyl sulfoxide (DMSO). During these experiments, the highest concentration of DMSO remaining in the cell culture was 0.18% (v/v). […]

[5] = system: HMGB1 secretion by RAW 264.7 cells; test: HMGB1 secretion by LPS-stimulated RAW 264.7 cells (Western blot); format: cell-based, murine; conditions: LPS 1 μg/ml, 48 or 72 h, Western blot of supernatant
Protocol: Equal volumes of cell culture supernatants were mixed with Laemmli buffer (20% glycerol, 10% beta-mercaptoethanol, 5% SDS, 0.2 M Tris.HCl, pH 6.8, and 0.4% bromophenol blue). After boiling for 10 min, the samples were subjected to 10% SDS-polyacrylamide gel electrophoresis. The resolved proteins were transferred to Hybond™-P polyvinylidene difluoride membranes (GE Healthcare, Chalfont St. Giles, UK), and blocked with bovine lacto-transfer optimizer buffer (1×PBS, 5% nonfat milk, and 0.05% Tween® 20) for 1 h. The membranes were incubated overnight at 4° C. with a 1:2000 dilution of rabbit polyclonal anti-HMGB1 antibody (generously provided by Dr. Michael T. Lotze, University of Pittsburgh) in blocking buffer. After washing three times in 1×PBST (1×PBS with 0.3% Triton X-100), immunoblots were exposed at room temperature for 1 h to a 1:20,000 dilution of horseradish peroxidase-conjugated goat anti-rabbit secondary antibody (Sigma-Aldrich, St. Louis, Mo.). After washing three times with 1×PBST, the membranes were illuminated with the ECL Plus™ substrate (GE Healthcare) and the X-ray films exposed, according to the manufacturer's instructions.
RAW 264.7 cells were cultured in the absence or presence of LPS (1 μg/ml). Some cells were co-incubated with graded concentrations of XJB-5-131. […]

| Molecule | Potency in inhibiting LPS-induced iNOS up-regulation, relative to XJB-5-208 [1] | LPS-induced iNOS mRNA up-regulation [1] | concentration of nitrites within blood plasma [2] | iNOS expression in liver samples [3] | IC50 ([4]; Mus musculus, RAW264.7, 24 h, RAW 264.7 cells, LPS 100 or 1000 ng/ml, NO2- plus NO3- in supernatant, approximate, read-out: IC50 for inhibition of LPS-induced NO production) [µM] | NO secretion by LPS-stimulated RAW 264.7 cells [4] | LPS-induced HMGB1 secretion [5] |
| --- | --- | --- | --- | --- | --- | --- | --- |
| CC(C)C[C@@H](/C=C/[C@H](Cc1ccccc1)C(=O)N1CCC[C@H]1C(=O)N[C@H](C(=O)N[C@@H](CCCNC(=O)OCc1ccccc1)C(=O)NC1CC(C)(C)N([O])C(C)(C)C1)C(C)C)NC(=O)OC(C)(C)C [XJB-5-131, N-Boc-Leu-[(E)-CH═CH]-^DPhe-Pro-Val-Orn(Cbz)-N-TEMPO] | more potent | inhibited LPS-induced iNOS up-regulation | 179.5±34.6 | attenuated iNOS expression in liver samples | ~3 | significantly reduced | inhibited LPS-induced HMGB1 secretion in a concentration-dependent fashion |
| N-Boc-Leu-[(E)-CH═CH]-^DPhe-N-TEMPO [XJB-5-208] |  | inhibited LPS-induced iNOS up-regulation |  |  |  | significantly reduced |  |
